Laboratory results from patent publication US20240207240A1, “Method for Improving or Treating Cognitive Dysfunction Complicating HIV-associated Cryptococcal Meningitis with Lenalidomide” (The First Affiliated Hospital Zhejiang University School of …, priority 2022, published 2024).
Where “and” joins values, the source holds several entries; their conditions need not be identical. Equal entries are not always repeated. Where two headings read alike, the source gives them in different places.

Key:
[1] = system: patients with cognitive dysfunction caused by HIV-associated CM-IRIS; assay type: in vivo, human; settings: for ΔMoCA: week 24 - week 0, median
[2] = in vivo; cited from earlier work
[3] = system: patients with cognitive dysfunction caused by HIV-associated CM-IRIS; test: Center for Epidemiological Research Depression Scale (CES-D); assay type: in vivo, human; settings: before vs after lenalidomide treatment
TNF-α = settings: cited from earlier work
[4] = system: patients with cognitive dysfunction caused by HIV-associated CM-IRIS; test: overall cognitive status by MoCA and IHDS scales; assay type: in vivo, human; settings: of 7 patients treated with lenalidomide
Experimental: FIGS. 2A and 2B show results of treating patients with HIV-associated CM who still develop cognitive dysfunction after completing the anti-cryptococcal induction treatment. The patients are treated with lenalidomide. In the treatment, lenalidomide is administered at 25 mg/day for immuno-modulation for a total of 6 treatment cycles, with each cycle including 21 days of lenalidomide administration followed by 7 days of no lenalidomide. The patients are further assigned to a cognitive improvement group and a cognitive non-improvement group. […] FIG. 2A compares CSF biochemistry in the cognitive improvement group and cognitive non-improvement group before and after treatment.
Definition of cognitive dysfunction: The Chinese version of the Montreal Cognitive Assessment (MoCA) shown in Table 1, International HIV Dementia Scale (IHDS) shown in Table 2, and Center for Epidemiological Research Depression Scale (CES-D) are used to assess patients' cognitive status. They all use Chinese questionnaires that have been validated for the evaluation of Chinese patients. The MoCA tests eight major neurocognitive domains, including short-term memory recall (no score), visuospatial ability, naming, attention, language, conceptual thinking, working memory, and orientation of time and place. […]

In the case of `Nc1cccc2c1CN(C1CCC(=O)NC1=O)C2=O` (stereo not shown) [lenalidomide], the “median MoCA score” value ([1]; W24, after 6 cycles lenalidomide 25 mg/day (21 days on, 7 off), 7 patients, baseline 23.0 (13.0-24.0), P=0.018) is reported as 26.0 (24.0-28.0), the “memory score in the MoCA” value ([1]; W24, baseline 1.0 (0-3.0), P=0.026) is reported as 4.0 (3.0-5.0) and the “MoCA-W 24” value ([1]; individual Patients 1-4 (cognitive improvement group)) is reported as 30 scores and 26 scores (2×) and 28 scores. The “MoCA-W 24” value ([1]; individual Patients 5-7 (cognitive non-improvement group)) was 24 scores and 25 scores and 19 scores, the ΔMoCA ([1]; CI group) was 8.5 scores and the ΔMoCA ([1]; CNI group) was 1.0 scores. The side effects [2] was “milder than those of thalidomide”, the “CES-D score for anxiety or depression, before to after treatment” value [3] was “no significant difference” and the “inhibitory effect on TNF-α relative to thalidomide” value (TNF-α) was 2000 times. The “patients whose cognitive status returned to normal” value [4] was 4 patients.
